Measurements taken from patent publication US20060111309A1, “Chalcomycin derivatives” (Biofrontera Discovery GmbH, priority 2002, published 2006).
Converted amounts (≈) assume the structure as drawn.

Assays:
Assay type in all cases: cell-based
Candida albicans = test: agar diffusion test; settings: 10 μg/9 mm Ø plate
Bacillus subtillis [1] = test: dilution method MIC
Chlorella sorokiniana = test: dilution method MIC
Escherichia coli [2] = test: dilution method MIC
Stapylococcus aureus [3] = test: agar diffusion test; settings: 10 μg/9 mm Ø plate
Scenedesmus subspicatus = test: dilution method MIC
Escherichia coli [4] = test: agar diffusion test; settings: 10 μg/9 mm Ø plate
Stapylococcus aureus [5] = test: dilution method MIC
Mucor miehei = test: agar diffusion test; settings: 10 μg/9 mm Ø plate
Bacillus subtillis [6] = test: agar diffusion test; settings: 10 μg/9 mm Ø plate

Compound | diameter of the inhibition zone, CA (Candida albicans) [mm] | MIC, BS (Bacillus subtillis [1]) [µg/mL] | MIC, CS (Chlorella sorokiniana) [µg/mL] | MIC, EC (Escherichia coli [2]) [µg/mL] | diameter of the inhibition zone, SA (Stapylococcus aureus [3]) [mm] | MIC, SS (Scenedesmus subspicatus) [µg/mL] | diameter of the inhibition zone, EC (Escherichia coli [4]) [mm] | MIC, SA (Stapylococcus aureus [5]) [µg/mL] | diameter of the inhibition zone, MM (Mucor miehei) [mm] | diameter of the inhibition zone, BS (Bacillus subtillis [6]) [mm]
CO[C@@H]1[C@H](O)[C@@H](C)O[C@@H](OC[C@H]2[C@@H]3O[C@H]3/C=C/C(=O)[C@@](C)(O)C[C@H](C)[C@H](O[C@@H]3O[C@H](C)C[C@H](OC)[C@H]3O)[C@@H](C)/C=C/C(=O)O[C@@H]2C)[C@@H]1OC [1a, Chalcomycin] | 0 | 6.25 (≈ 8.92 µM) | 50 (≈ 71.3 µM) | >50 | 30 | 50 (≈ 71.3 µM) | 32 | 0.39 (≈ 0.556 µM) | 0 | 25
chalcomycin B [1b] | 0 | 6.25 | 50 | >50 | 23 | 50 | 28 | 0.39 | 0 | 21
CC[C@H]1OC(=O)[C@H](C)[C@@H](O[C@H]2C[C@@](C)(OC)[C@@H](O)[C@H](C)O2)[C@H](C)[C@@H](O[C@@H]2O[C@H](C)C[C@H](N(C)C)[C@H]2O)[C@](C)(O)C[C@@H](C)C(=O)[C@H](C)[C@@H](O)[C@]1(C)O [E, erythromycin] |  |  |  |  | 24 |  | 30 |  |  | 22
